# pIC50: −log10 of the molar value. Marks after values point to notes of the source that are not given here. Peptide text beside a SMILES is read from it.
# Tests used:
# [1] = target: purified human DPP IV enzyme (Homo sapiens, UniProt P27487); test: Luminescence DPPIV‐GLO DPP IV inhibition biochemical assay (cell‐free system)
# Description: The luminescence DPPIV‐GLO Protease assay (G8351, Promega, Madison, WI) was performed to measure the DPP IV inhibitory capacity of selected AB7S peptides and S7S peptides. Percent inhibition was calculated for each sample. Results were presented as percent inhibition per log (µg peptide/mL). The inhibitory concentration (IC) values of the peptides were calculated using Origin Pro software (Version 2021, OriginLab Corporation, Northampton, MA, USA).
# [2] = target: T1, DPP IV activity in HepG2 cells (Homo sapiens, UniProt P27487); test: Luminescence DPP IV assay in the cell‐based system (HepG2); settings: 24 h treatment; for IC20: read-out: DPP IV inhibition IC20
# T1 construct: dose‐response in vitro experiments conducted using the HepG2 cell culture; host or cells: HepG2
# T1 sequence (P27487 whole entry): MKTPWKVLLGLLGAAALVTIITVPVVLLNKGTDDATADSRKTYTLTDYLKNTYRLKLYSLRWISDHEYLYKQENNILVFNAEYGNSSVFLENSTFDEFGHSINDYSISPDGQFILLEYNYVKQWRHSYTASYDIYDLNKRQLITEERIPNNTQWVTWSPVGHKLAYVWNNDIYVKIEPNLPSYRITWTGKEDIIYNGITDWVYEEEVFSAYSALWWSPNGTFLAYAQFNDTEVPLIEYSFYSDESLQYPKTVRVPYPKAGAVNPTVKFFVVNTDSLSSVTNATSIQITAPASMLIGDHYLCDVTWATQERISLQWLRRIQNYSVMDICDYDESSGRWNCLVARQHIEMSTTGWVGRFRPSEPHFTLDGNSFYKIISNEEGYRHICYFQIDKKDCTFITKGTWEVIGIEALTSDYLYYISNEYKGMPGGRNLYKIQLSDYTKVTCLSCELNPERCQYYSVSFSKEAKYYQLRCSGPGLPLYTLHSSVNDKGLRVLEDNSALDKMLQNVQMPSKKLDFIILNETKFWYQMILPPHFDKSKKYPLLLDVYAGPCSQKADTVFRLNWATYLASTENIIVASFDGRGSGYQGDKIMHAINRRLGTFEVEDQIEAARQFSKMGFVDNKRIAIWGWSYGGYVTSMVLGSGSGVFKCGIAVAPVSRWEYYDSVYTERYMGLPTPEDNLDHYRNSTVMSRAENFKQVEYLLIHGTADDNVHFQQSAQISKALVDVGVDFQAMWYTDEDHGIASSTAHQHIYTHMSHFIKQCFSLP
# Description: (§1) HepG2 cells were seeded in either 96‐well plates or 6‐well plates for 24 h. For the healthy cell model (NG), cells were incubated in a medium with a healthy/normal glucose level (5.5 mM glucose), and no stimulation was performed. For the insulin‐resistant cell model (HG), cells were stimulated according to the methods used in a previous publication. In brief, cells were treated for 24 h using 25 mM glucose with 100 nM insulin to stimulate insulin resistance in the HepG2 cells. After seeding or insulin‐resistant stimulation, the cells were treated with selected pure AB7S peptides, selected pure S7S peptides, peptide Asp‐Leu‐Asp‐Val (DLDV; peptide with no DPP IV inhibitory capacity), or 1 nM linagliptin (DPP IV inhibitor) for 24 h. […] Treated cells were used to either perform cell viability assays or were collected, centrifuged, and stored at −80°C until being used.
# DPP IV inhibition was measured using the luminescence DPPIV‐GLO Protease assay (G8351, Promega, Madison, WI). In brief, treated cells were incubated with three concentrations of selected pure AB7S peptides or selected pure S7S peptides for 24 h, and linagliptin (1 nM) was used as a positive control. Treated cells were collected and stored at −80°C for no more than one week until being used for the DPPIV‐GLO protease assay. Percent inhibition was calculated, and results were presented as percent inhibition per log (µg peptide/mL). The IC values of the peptides were calculated using Origin Pro software (Version 2021, OriginLab Corporation, Northampton, MA, USA).
# [3] = tested on: Akt1S1 (AKT1 substrate 1); test: Insulin receptor phospho antibody microarray: Akt1S1; assay type: cell-based, human; settings: VP 9.58 µM, HepG2, healthy state, related to the untreated control, p < 0.05
# Description: (§2) Cells treated with VP (9.58 µM) and the untreated cells were tested using immunoassay proteomics. The IC50 value of VP obtained from the luminescence‐based DPP IV inhibition biochemical assay was used as the treatment concentration. Cells were treated as described in Section 2.4. An insulin receptor microarray was performed according to the manufacturer's instructions to test the protein expression of markers in the insulin signaling pathway (Insulin Receptor Phospho Antibody Array, PIG219, Full Moon BioSystem, Sunnyvale, CA, USA). Array signals were visualized with a 20× objective using a Widefield Fluorescence Microscope (Carl Zeiss AG, Germany) and were analyzed as previously described. Student's t‐test was used to assess the differences between the VP treatment and the negative control.
# [4] = tested on: Glut 2; test: Glut 2 immunocytochemical fluorescence confocal microscopy in HepG2 cells; assay type: cell-based, human; settings: VP 9.58 µM, linagliptin 1 nM; for Glut 2 fluorescence emission, higher than the untreated control: healthy state; for Glut 2 fluorescence emission, increase compared to the untreated insulin‐resistant cells: insulin‐resistant state
# Description: as §1
# The expression of Glut 2 due to the peptide treatment (VP, 9.58 µM) was investigated in HepG2 cells seeded in Ibidi imaging dish (Ibidi, Fitchburg, WI, USA). Cells were treated as described in Section 2.4. The positive control (1 nM linagliptin) was also tested. The immunocytochemical fluorescence confocal microscopy was performed according to a previous procedure. In brief, cells were fixed, permeabilized, blocked, and incubated with Glut 2 antibodies (07‐1402, 1:1000) overnight at 4°C. Cells were then washed twice, incubated with anti‐rabbit IgG secondary antibody (A‐11012; 1:200) for 2 h in the dark, cured with ProLong Gold Antifade Reagent with DAPI (4′,6‐diamidino‐2‐phenylindole), and stored at 4°C until imaging. Cell images were obtained with 63× oil immersion objective (Glut 2: excitation wavelength: 557 nm, emission wavelength: 572 nm; DAPI: excitation wavelength: 353 nm; emission wavelength: 465 nm) using a Carl Zeiss LSM 900 Laser Scanning Microscope (Carl Zeiss AG, Germany).
# [5] = tested on: mTOR (Mechanistic target of rapamycin); test: Insulin receptor phospho antibody microarray: mTOR; assay type: cell-based, human; settings: VP 9.58 µM, HepG2, healthy state, related to the untreated control, p < 0.05
# Description: as §2
# [6] = tested on: AMPK1/AMPK2 (AMP‐activated protein kinase catalytic subunit alpha‐1/2); test: Insulin receptor phospho antibody microarray: AMPK1/AMPK2; assay type: cell-based, human; settings: VP 9.58 µM, HepG2, healthy state, related to the untreated control, p < 0.05
# Description: as §2
# [7] = tested on: Akt (AKT serine/threonine kinase); test: Insulin receptor phospho antibody microarray: Akt; assay type: cell-based, human; settings: VP 9.58 µM, HepG2, healthy state, related to the untreated control, p < 0.05
# Description: as §2
# [8] = tested on: IR (Insulin receptor); test: Insulin receptor phospho antibody microarray: IR; assay type: cell-based, human; settings: VP 9.58 µM, HepG2, healthy state, related to the untreated control, p < 0.05
# Description: as §2
# [9] = tested on: Glut 2; test: Western blot Glut 2 protein expression in HepG2 cells; assay type: cell-based, human; settings: for Glut 2 protein expression, increase over untreated controls: healthy state (NG, 5.5 mM glucose), linagliptin 1 nM; for Glut 2 protein expression, increase over untreated controls / Glut 2 protein expression, increase over untreated insulin‐resistant cells: VP 9.58 µM, IPA 7.86 µM, DLDV 1790 µM, 24 h; for Glut 2 protein expression, increase over untreated insulin‐resistant cells: insulin‐resistant state (HG, 25 mM glucose with 100 nM insulin)
# Description: as §1
# (§3) Cells treated with VP (9.58 µM), IPA (7.86 µM), DLDV (1790 µM), or linagliptin (1 nM) and untreated cells were used for western blot. In brief, membranes were incubated with conjugated antibodies for human IRS‐1 (sc‐8038 HRP, 1:100) and Akt‐1 (sc‐5298 HRP, 1:100), or ACCα (sc‐137104 HRP, 1:100) overnight at 4°C and washed. Membranes were also incubated with unconjugated primary antibodies for human Glut 2 (07‐1402, 1:1000), then washed and probed with secondary sheep anti‐mouse and donkey anti‐rabbit antibodies (NA931V and NA934V, 1:2500, 2 h, room temperature; Cytiva, Marlborough, MA, USA). GAPDH (sc‐25778 HRP or sc‐47724, 1:4000) was used as the protein loading control and was used to evaluate the relative expression of each protein. Clarity Western ECL Substrate (Bio‐Rad, Hercules, CA, USA) and ImageQuant 800 System (GE Healthcare, Buckinghamshire, UK) were used for imaging.
# [10] = tested on: IRS‐1 (Insulin receptor substrate 1); test: Insulin receptor phospho antibody microarray: IRS‐1; assay type: cell-based, human; settings: VP 9.58 µM, HepG2, healthy state, related to the untreated control, p < 0.05
# Description: as §2
# [11] = tested on: Akt‐1; test: Western blot Akt‐1 protein expression in HepG2 cells; assay type: cell-based, human; settings: VP 9.58 µM, IPA 7.86 µM, DLDV 1790 µM, 24 h; for Akt‐1 protein expression, increase over untreated controls: healthy state (NG, 5.5 mM glucose), linagliptin 1 nM; for Akt‐1 protein expression, increase over untreated insulin‐resistant cells: insulin‐resistant state (HG, 25 mM glucose with 100 nM insulin)
# Description: as §1, §3
# [12] = tested on: Shc (SHC‐transforming protein 1); test: Insulin receptor phospho antibody microarray: Shc; assay type: cell-based, human; settings: VP 9.58 µM, HepG2, healthy state, related to the untreated control, p < 0.05
# Description: as §2
# [13] = tested on: ACCα; test: Western blot ACCα protein expression in HepG2 cells; assay type: cell-based, human; settings: VP 9.58 µM, IPA 7.86 µM, DLDV 1790 µM, 24 h; for ACCα protein expression, change versus untreated controls: healthy state (NG, 5.5 mM glucose), linagliptin 1 nM; for ACCα protein expression, change versus untreated insulin‐resistant cells: insulin‐resistant state (HG, 25 mM glucose with 100 nM insulin)
# Description: as §1, §3
# [14] = tested on: IRS‐1; test: Western blot IRS‐1 protein expression in HepG2 cells; assay type: cell-based, human; settings: VP 9.58 µM, IPA 7.86 µM, DLDV 1790 µM, 24 h; for IRS‐1 protein expression, increase over untreated controls: healthy state (NG, 5.5 mM glucose), linagliptin 1 nM; for IRS‐1 protein expression, increase over untreated insulin‐resistant cells: insulin‐resistant state (HG, 25 mM glucose with 100 nM insulin)
# Description: as §1, §3
# [15] = tested on: PP2A‐α (Protein phosphatase 2 alpha); test: Insulin receptor phospho antibody microarray: PP2A‐α; assay type: cell-based, human; settings: VP 9.58 µM, HepG2, healthy state, related to the untreated control, p < 0.05
# Description: as §2
# Chain of purified human DPP IV enzyme (P27487 whole entry): as above
molecule,measurement,setting,value
"CC[C@H](C)[C@H](N)C(=O)N1CCC[C@H]1C(=O)N[C@@H](C)C(=O)O [IPA, Ile‐Pro‐Ala] (H-Ile-Pro-Ala-OH)",IC20,[1],33.1 µM
same,pIC50,[1],4.15
same,IC20,[2],3.66 µM
same,pIC50,[2]; read-out: DPP IV inhibition IC50,5.10
"CC(C)[C@H](N)C(=O)N1CCC[C@H]1C(=O)O [VP, Val‐Pro] (H-Val-Pro-OH; N-terminus and C-terminus assumed)",Akt1S1 Phosphorylated/Non‐phosphorylated ratio,[3],1.3^* Fold Change
same,"Glut 2 fluorescence emission, higher than the untreated control",[4],36%
same,"Glut 2 fluorescence emission, increase compared to the untreated insulin‐resistant cells",[4],> 14%
same,mTOR Phosphorylated/Non‐phosphorylated ratio,[5],3.6^* Fold Change
same,AMPK1/AMPK2 Phosphorylated/Non‐phosphorylated ratio,[6],3.5^* Fold Change
same,Akt Phosphorylated/Non‐phosphorylated ratio,[7],3.9^* Fold Change
same,IR Phosphorylated/Non‐phosphorylated ratio,[8],1.7^* Fold Change
same,Power in increasing Glut 2 protein expression relative to the digested adzuki bean β‐vignin protein,"[9]; HepG2, comparison based on previous data",> 100 times
same,"Glut 2 protein expression, increase over untreated controls",[9],> 25%
same,"Glut 2 protein expression, increase over untreated insulin‐resistant cells",[9],> 25%
same,IRS‐1 Phosphorylated/Non‐phosphorylated ratio,[10],0.2^* Fold Change
same,"Akt‐1 protein expression, increase over untreated controls",[11],> 25%
same,"Akt‐1 protein expression, increase over untreated insulin‐resistant cells",[11],> 25%
same,Shc Phosphorylated/Non‐phosphorylated ratio,[12],3.2^* Fold Change
same,IC20,[1],200 µM
same,IC20,[2],4.69 µM
same,"ACCα protein expression, change versus untreated controls",[13],no changes
same,"ACCα protein expression, change versus untreated insulin‐resistant cells",[13],not different
same,"IRS‐1 protein expression, increase over untreated controls",[14],> 50%
same,"IRS‐1 protein expression, increase over untreated insulin‐resistant cells",[14],> 25%
same,PP2A‐α Phosphorylated/Non‐phosphorylated ratio,[15],2.6^* Fold Change
"CC#CCn1c(N2CCC[C@@H](N)C2)nc2c1c(=O)n(Cc1nc(C)c3ccccc3n1)c(=O)n2C [linagliptin, Linagliptin, reference compound]","Glut 2 fluorescence emission, higher than the untreated control",[4],36%
same,"Glut 2 fluorescence emission, increase compared to the untreated insulin‐resistant cells",[4],> 14%
same,"Glut 2 protein expression, increase over untreated controls",[9],> 25%
same,"Akt‐1 protein expression, increase over untreated controls",[11],> 25%
same,"ACCα protein expression, change versus untreated controls",[13],no changes
same,"IRS‐1 protein expression, increase over untreated controls",[14],> 50%
Asp‐Leu‐Asp‐Val [DLDV],"Glut 2 protein expression, increase over untreated controls",[9],no differences
same,"Glut 2 protein expression, increase over untreated insulin‐resistant cells",[9],no differences
same,"Akt‐1 protein expression, increase over untreated controls",[11],no differences
same,"Akt‐1 protein expression, increase over untreated insulin‐resistant cells",[11],no differences
same,"ACCα protein expression, change versus untreated controls",[13],no differences
same,"ACCα protein expression, change versus untreated insulin‐resistant cells",[13],no differences
same,"IRS‐1 protein expression, increase over untreated controls",[14],no differences
same,"IRS‐1 protein expression, increase over untreated insulin‐resistant cells",[14],no differences
Leu‐Leu‐Ser [LLS],IC20,[1],40.1 µM
same,IC20,[2],7.13 µM
Phe‐Asn‐Glu [FNE],DPP IV inhibition IC5,[1],5.65 µM
same,DPP IV inhibition IC5,[2],63.52 µM
Pro‐Met [PM],IC20,[1],59.4 µM
same,IC20,[2],5.14 µM

# Reference: paper PMC12700049, “Peptides From Adzuki Bean and Soybean Improved Insulin‐AKT Signaling‐Related Pathways in Healthy and Insulin‐Resistant States in Human Liver Cells” (Molecular Nutrition & Food Research, 2025)
